In article PMC7167990, “Therapeutic Effects of Atranorin towards the Proliferation of Babesia and Theileria Parasites” (Pathogens, 2020):
Several values for one entry are separate records, joined by “and”; a condition that tells them apart may be missing. Identical values can stand only once. Like-named read-outs stand apart in the source and are kept apart here.

How the values were obtained:
MDBK cells = experiment: Cytotoxicity assay (CCK-8 cell viability); type: cell-based, bovine; conditions: for EC50: Bos taurus, MDBK cells, 24 h, CCK-8
Method: (§1) Cultures of human foreskin fibroblast (HFF; HFF-1 ATCC® SCRC-1041™), Madin–Darby bovine kidney (MDBK; ECACC) and mouse embryonic fibroblast (NIH/3T3; ATCC® CRL-1658™) cells were retrieved from −80 °C stock and cultured continuously at 37 °C under atmosphere 5% CO2 in our laboratory. The NIH/3T3 and HFFs cells were maintained in Dulbecco Modified Eagle’s Medium (DMEM; Gibco, Grand Island, NY, USA), while MDBK cell line grown in Minimum Essential Medium Eagle (MEM; Gibco). Each medium was treated with 0.5% penicillin/streptomycin (Gibco), 10% inactivated fetal bovine serum and 2 mM glutamine. Every 72 to 96 h, the medium was replaced, and once 80% confluence was reached, the cell collection was performed by sub-culture protocol. To confirm the absence of mycoplasma contamination, 4,6-diamidino-2-phenylindole dihydrochloride stain (Sigma-Aldrich) was used.
(§2) The cell viability test was conducted in a 96-well plate as described elsewhere. Briefly, an aliquot of (100 µL) cells was implanted at a concentration of 5 × 10^4 cells/mL in DMEM or MEM with fetal bovine serum and incubated overnight under atmosphere 5% CO2 at 37 °C for attachment. Using two-fold dilutions, aliquots (10 µL) of drugs were added in triplicate per well to attain final concentrations of 50 to 1000 µM and further incubated for 24 h. The positive control wells containing cells mixed with the medium in 0.4% DMSO, whereas the negative control wells containing culture medium only. After a 24-h incubation, Cell Counting Kits-8 (CCK-8, 10 µL) was added to each well and then plate incubation was conducted for an additional 3 h and a microplate reader was used to assess the absorbance at 450 nm.

[1] = Hematology parameters (HGB, HCT, RBCs) in B. microti-infected treated mice; type: in vivo, BALB/c mice; set-up: HGB Mean: unit not given beside the values; RBCs Mean: unit not given here; conditions: DA 25, AV 20, ATR 25, ATR 12.5+DA 12.5, ATR 12.5+AV 10 mg/kg BW, days 4-8 p.i.
NIH/3T3 cells = experiment: Cytotoxicity assay (CCK-8 cell viability); type: cell-based, mouse; conditions: for EC50: Mus musculus, read-out: EC50 NIH/3T3
Method: as §1, §2

B. microti = conditions: for peak parasitemia level: peak on day 10; for peak parasitemia level / first day on which parasitemia was not detected by microscopy: B. microti-infected BALB/c mice; for first day on which parasitemia was not detected by microscopy: DA 25, AV 20, ATR 25, ATR 12.5+DA 12.5, ATR 12.5+AV 10 mg/kg BW
B. divergens = experiment: In vitro growth inhibition, Babesia fluorescent (SYBR Green I) assay; type: cell-based; conditions: 96 h, 4 days culture, mean of triplicate experiments
Method: (§3) Babesia parasite was incubated and maintained at 37 °C in a humidifying chamber under 5% CO2, 5% O2, and 90% N2 atmosphere using a microaerophilic stationary-phase culture for conducting the in vitro experiment. Briefly, Germany strain Babesia divergens was cultured in cattle RBCs in Roswell Park Memorial Institute 1640 (RPMI 1640; Sigma-Aldrich, St. Louis, MO, USA) medium replenished with 40% cattle serum, while culture medium 199 (M199; Sigma-Aldrich) was utilized for the Argentina strain B. bigemina and Texas strain B. bovis, and T. equi USDA strain cultured in cattle RBCs supplemented with 40% cattle serum and horse RBCs maintained in hypoxanthine (MP Biomedicals, Santa Ana, CA, USA; final concentration 13.6 μg/mL) and 40% horse serum, respectively. GIT medium complemented with 40% horse serum was used as a growth medium for the USDA strain of B. caballi cultured in horse RBCs. To ensure free-bacterial contamination, amphotericin B (0.15 μg/mL) (Sigma-Aldrich), streptomycin (60 U/mL) and penicillin G (60 U/mL) were added to all medium.
(§4) The Babesia fluorescent assay was carried out on the in vitro culture as previously reported elsewhere to assess the growth of the inhibitory effectiveness of ATR and the combination treatment with DA, CF, and AV. Briefly, in three separate trials, using two-fold dilution, different concentrations of ATR, DA, CF, and AV were prepared in the culture medium and added in 96-well plates in triplicate with 1% parasitemia for T. equi, B. divergens and B. caballi at 5% HCT, while for B. bigemina and B. bovis using 2.5% HCT. The drug combined efficacy was conducted at the same time with the single-treatment assay in accordance with the Chou–Talalay method. […] On day four of culture, an aliquot (100 µL) of lysis buffer mixed with 0.2μL/mL SG1 was added per well; subsequently, it was covered with aluminum foil to prevent exposure to light. After incubation for 6-h at 37 °C, fluorescence readings were acquired on a spectrofluorimeter (Fluoroskan Ascent, Thermo Fisher Scientific, Oceanside, CA, USA) with a 485 nm excitation wavelength and a 518 nm emission wavelength.
(§5) The IC50 values of ATR, DA, CF, and AV were established from the in vitro growth inhibition by nonlinear regression curve fit on a GraphPad Prism (GraphPad Software Inc., San Diego, CA, USA). […] The significant variations (p < 0.05) among group mean values on parasitemia and one-way ANOVA Tukey’s test in GraphPad Prism version 5.0 was used to analyze hematology profiles in mice infected with B. microti.

B. caballi = experiment: as above; type: cell-based; conditions: Babesia caballi, 96 h, 4 days culture, mean of triplicate experiments
Method: as §3, §4, §5

B. bigemina = experiment: as above; type: cell-based; conditions: 96 h, 4 days culture, mean of triplicate experiments
Method: as §3, §4, §5

B. bovis = experiment: as above; type: cell-based; conditions: Bos taurus, 96 h, 4 days culture, mean of triplicate experiments
Method: as §3, §4, §5

T. equi = experiment: as above; type: cell-based; conditions: 96 h, 4 days culture, mean of triplicate experiments
Method: as §3, §4, §5

[2] = EC50 NIH/3T3 / IC50 B. bigemina
[3] = EC50 NIH/3T3 / IC50 B. divergens
[4] = ATR 25 mg/kg i.p., days 4-8 p.i.

Compound: COC(=O)c1c(C)cc(OC(=O)c2c(C)cc(O)c(C=O)c2O)c(C)c1O [ATR, Atranorin]
- EC50 (MDBK cells): 775 ± 16 µM
- Selective Index MDBK (MDBK cells; EC50 MDBK / IC50 B. bigemina): 12.0
- Selective Index MDBK (MDBK cells; EC50 MDBK / IC50 B. bovis): 7.9
- Selective Index MDBK (MDBK cells; EC50 MDBK / IC50 B. caballi): 16.6
- Selective Index MDBK (MDBK cells; EC50 MDBK / IC50 B. divergens): 17.1
- Selective Index MDBK (MDBK cells; EC50 MDBK / IC50 T. equi): 10.6 and 10.9
- HCT Mean ([1]; day 0): 46.575%
- HGB Mean ([1]; day 0): 14.8
- RBCs Mean ([1]; day 0): 942.625
- HCT Mean ([1]; day 4): 44.4%
- HGB Mean ([1]; day 4): 13.64
- RBCs Mean ([1]; day 4): 928
- HCT Mean ([1]; day 8): 38%
- HGB Mean ([1]; day 8): 10
- RBCs Mean ([1]; day 8): 610
- HCT Mean ([1]; day 12): 28.925%
- HGB Mean ([1]; day 12): 10.05
- RBCs Mean ([1]; day 12): 557
- HCT Mean ([1]; day 16): 36.65%
- HGB Mean ([1]; day 16): 11.425
- RBCs Mean ([1]; day 16): 637.75
- HCT Mean ([1]; day 20): 39.5%
- HGB Mean ([1]; day 20): 11.95
- RBCs Mean ([1]; day 20): 679.75
- HCT Mean ([1]; day 24): 40.2%
- HGB Mean ([1]; day 24): 12.725
- RBCs Mean ([1]; day 24): 830
- HCT Mean ([1]; day 28): 43.2%
- HGB Mean ([1]; day 28): 13.2
- RBCs Mean ([1]; day 28): 898
- HCT Mean ([1]; day 32): 45.2%
- HGB Mean ([1]; day 32): 14.8
- RBCs Mean ([1]; day 32): 942.625
- HCT Mean ([1]; day 36): 47.2%
- HGB Mean ([1]; day 36): 14.99
- RBCs Mean ([1]; day 36): 982.625
- Selective Index NIH/3T3 (NIH/3T3 cells; [2]): 9.9
- Selective Index NIH/3T3 (NIH/3T3 cells; EC50 NIH/3T3 / IC50 B. bovis): 6.5
- Selective Index NIH/3T3 (NIH/3T3 cells; EC50 NIH/3T3 / IC50 B. caballi): 13.7
- Selective Index NIH/3T3 (NIH/3T3 cells; [3]): 14.0
- Selective Index NIH/3T3 (NIH/3T3 cells; EC50 NIH/3T3 / IC50 T. equi): 9
- EC50 (NIH/3T3 cells; NIH3T3, 24 h): 638 ± 12 µM
- inhibition of B. microti multiplication in mice (B. microti; [4]): 68.17%
- peak parasitemia level (B. microti; [4]): 19.92%
- first day on which parasitemia was not detected by microscopy (B. microti; days 4-8 p.i.): 26 day p.i.
- toxic signs in mice due to treatment (B. microti; mouse, in vivo): no obvious toxic signs or promoted anemia
- IC50 (B. divergens): 45.2 ± 5.9 µM
- IC50 (B. caballi): 46.6 ± 2.5 µM
- IC50 (B. bigemina): 64.5 ± 3.9 µM
- IC50 (B. bovis): 98.4 ± 4.2 µM
- IC50 (T. equi): 71.3 ± 2.7 µM

Compound: O=C1C(O)=C([C@H]2CC[C@H](c3ccc(Cl)cc3)CC2)C(=O)c2ccccc21 [AV, atovaquone]
- EC50 (MDBK cells): > 100 µM
- Selective Index MDBK (MDBK cells; EC50 MDBK / IC50 B. bigemina): ˃142.7
- Selective Index MDBK (MDBK cells; EC50 MDBK / IC50 B. bovis): ˃2564
- Selective Index MDBK (MDBK cells; EC50 MDBK / IC50 B. caballi): ˃980.4
- Selective Index MDBK (MDBK cells; EC50 MDBK / IC50 B. divergens): ˃2631
- Selective Index MDBK (MDBK cells; EC50 MDBK / IC50 T. equi): ˃1052
- HCT Mean ([1]; day 0): 47.48%
- HGB Mean ([1]; day 0): 14.44
- RBCs Mean ([1]; day 0): 1060.62
- HCT Mean ([1]; day 4): 45%
- HGB Mean ([1]; day 4): 13.64
- RBCs Mean ([1]; day 4): 984.75
- HCT Mean ([1]; day 8): 44%
- HGB Mean ([1]; day 8): 14.34
- RBCs Mean ([1]; day 8): 878
- HCT Mean ([1]; day 12): 40%
- HGB Mean ([1]; day 12): 12.6
- RBCs Mean ([1]; day 12): 850
- HCT Mean ([1]; day 16): 43%
- HGB Mean ([1]; day 16): 13.96
- RBCs Mean ([1]; day 16): 830.25
- HCT Mean ([1]; day 20): 45%
- HGB Mean ([1]; day 20): 14.92
- RBCs Mean ([1]; day 20): 844
- HCT Mean ([1]; day 24): 46%
- HGB Mean ([1]; day 24): 15.4
- RBCs Mean ([1]; day 24): 850
- HCT Mean ([1]; day 28): 48%
- HGB Mean ([1]; day 28): 15.64
- RBCs Mean ([1]; day 28): 984.75
- HCT Mean ([1]; day 32): 50%
- HGB Mean ([1]; day 32): 16
- RBCs Mean ([1]; day 32): 1000.62
- HCT Mean ([1]; day 36): 51%
- HGB Mean ([1]; day 36): 16.44
- RBCs Mean ([1]; day 36): 1060.62
- Selective Index NIH/3T3 (NIH/3T3 cells; [2]): ˃142.7
- Selective Index NIH/3T3 (NIH/3T3 cells; EC50 NIH/3T3 / IC50 B. bovis): ˃2564
- Selective Index NIH/3T3 (NIH/3T3 cells; EC50 NIH/3T3 / IC50 B. caballi): ˃980.4
- Selective Index NIH/3T3 (NIH/3T3 cells; [3]): ˃2631
- Selective Index NIH/3T3 (NIH/3T3 cells; EC50 NIH/3T3 / IC50 T. equi): ˃1052
- EC50 (NIH/3T3 cells; NIH3T3, NIH/3T3 cells, 24 h, CCK-8): > 100 µM
- peak parasitemia level (B. microti; AV at 20 mg/kg, days 4-8 p.i.): 10.99%
- first day on which parasitemia was not detected by microscopy (B. microti; days 4-8 p.i.): 18 day p.i.
- IC50 (B. divergens): 0.04 µM
- IC50 (B. caballi): 0.1 ± 0.01 µM
- IC50 (B. bigemina): 0.7 ± 0.04 µM
- IC50 (B. bovis): 0.04 µM
- IC50 (T. equi): 0.09 ± 0.06 µM
